Source: US11766434B2, “Pyrimidinone derivatives as CDC7 inhibitors” (Cancer Research Technology Limited, priority 2016, dated 2023)

Experiments:
[1] = molecular target: Cdc7 (Homo sapiens, UniProt O00311); assay: Cdc7 cell pharmacodynamics assay Method 1: pS53MCM2 levels in HCT116 cells; assay type: cell-based; design: endogenous in cells; conditions: 6 hours treatment, read-out: Biomarker Method 1 (pEC50) (converted)
Excerpt: This protocol describes a method to investigate the inhibition of Cdc7 activity of compounds by measuring pS53MCM2 levels in cells after treatment.
• HCT116 cells (wild type P53 positive) • McCoys 5A media (PAA Laboratories Ltd, E15-022) • 10% FCS (Sera Laboratories International Ltd, EU000F Batch: 108005) • 100× L-Glutamine (Invitrogen, 25030-024) • D-PBS without CaCl2 and MgCl2 (Invitrogen, ref. 14190-094) • Trypsin/EDTA (Invitrogen 25300-054) • 2% BSA in PBS • Cell Extraction Buffer (Invitrogen FNN0011) • Protease inhibitor cocktail (Sigma P-2714) • PMSF 0.3M stock in DMSO (Sigma P7626) • Antibody—rabbit pMCM2 Ser53 (Bethyl #A300-756A) • Antibody—goat MCM2 (Bethyl #A300-122A) • Antibody—goat Anti Rabbit IgG HRP (Perbio Science UK Ltd 31462) • 1×PBS • FACE Wash buffer (0.02% Triton X100 in 1×PBS) • SuperSignal ELISA Pico Chemiluminescent Substrate (Perbio Science UK Ltd 37070) Method • 72 hours prior to the start of the experiment plate 1×10^6 HCT116 cells in a 150 cm^2 flask in complete McCoys 5A media (+10% FCS+1× L-glutamine). • Plate 20,000 HCT116 cells per well in standard TC treated 96 well plate in 100 μL complete McCoys 5A media. • Allow cells to settle overnight in incubator set at 37° C. and 5% CO2. • Remove intermediate plate from fridge and place at 37° C. overnight to allow to equilibrate. • Cell treatment: cell assay plate 100 μL; daughter to cell transfer volume 3.33 μL; daughter volume 45 μL; mother plate to daughter volume 5 μL. • Once all cells are treated remove the cells to the incubator and incubate for 6 hours. • Dilute the capture antibody (total MCM2 #A300-122A) 1 in 250 in the required volume of PBS (5 mL per assay plate) and add 50 μL to each well of a Hybond plate excluding wells 12E to 12H. In these wells add 50 μL PBS. Seal the plate and incubate at room temperature fora minimum of 2 hours. • Defrost aliquot of Invitrogen Cell Extraction Buffer (FNN0011) on ice and supplement with appropriate volume of both Sigma protease inhibitor cocktail (P-2714) and PMSF (final cone 1 mM from a […] in DMSO). • After the 6 hour cell treatment time tap out the media from the assay plates and place them in the −70° C. freezer for at least 5 minutes. • Remove plates from freezer and add 20 μL of ice cold complete lysis buffer on ice. Incubate cells for 30 minutes at 4° C. • Add 80 μL per well 2% BSA. • Transfer 80 μL from the lysis plate to the same wells in the capture/ELISA plate. Cover with plate seal and incubate plates overnight at 4° C. • Wash plates with PBS, remove any residual remaining liquid and add 50 μL per well of pMCM2 Ser53 antibody (#A300-756A) diluted 1 in 100 in 2% BSA. Cover plate and incubate at room temperature for 2 hours with gentle shaking. • Wash plates with PBS, remove any residual remaining liquid and Incubate with 50 μL goat anti rabbit antibody (1 in 800 dilution in 2% BSA) for 1 hour at room temperature. • Wash plates with PBS, remove any residual remaining liquid and add 50 μL mixed SuperSignal Pico substrate. • Incubate each plate for 5 minutes at room temperature shielding the plates from direct light (with a cover plate). Read plates with the luminescent detection. Method 2

[2] = molecular target: Cdc7/ASK (Homo sapiens, UniProt O00311); assay: Cdc7 biochemical assay Method 1: 384 well ELISA, MCM2 whole protein substrate, Phospho MCM2 (S53) antibody; design: purchased; conditions: ATP 2 μM, 90 minutes, read-out: Biochemical method 1 (pIC50) (converted)
Procedure: This protocol describes a method for assaying Cdc7/ASK for activity. The assay is a 384 well ELISA assay, utilising a whole protein substrate (MCM2) and an antibody against Phospho MCM2 (S53). This site is thought to be specific to Cdc7/ASK phosphorylation and the assay has been validated using knockout mutants.
• TBS: 25 mM Tris pH 7.2, 150 mM NaCl. (Dilute 10× stock by 1:10). • Wash Buffer: TBS+0.05% Tween 20. (Add 100 mL 1 M Tris pH 7.2, 120 mL 5 M NaCl and 2 mL 100% Tween 20 per 4 L). • Kinase Reaction Buffer: 50 mM Tris-HCl pH 8.5, 10 mM MgCl2, 1 mM DTT. (Dilute 10× stock by 1:10 and add 100 μL 1M DTT per 100 mL prior to assay). • Diethanolamine Buffer: 1 M diethanolamine pH 9.8, 0.5 mM MgCl2. • Stop Solution: 1 M NaOH. • MCM2 was expressed and purified in-house and used in the assay at a final assay concentration of 436 ng/well. • Cdc7/ASK is purchased from commercial suppliers and used in the assay at a final assay concentration of 37.97 ng/well or 20.63 nM. • ATP used as a final assay concentration of 2 μM. • Primary Antibody: Rabbit anti-Phospho MCM2 (S53 Antibody (BL3353)), is purchased from commercial suppliers at 0.2 mg/mL and used at a final assay concentration by diluting 1:800 in TBS. • Secondary Antibody: Anti-Rabbit/AP Antibody is supplied is purchased from commercial suppliers at 1 mg/mL and used at a final assay concentration by diluting 1:2000 in TBS. • Development Reagent: Dissolve one 20 mg PNPP tablet (Sigma, product N2765, 20 mg per tablet) per 20 mL diethanolamine Buffer (or one 5 mg PNPP tablet per 5 mL diethanolamine buffer). Cover in foil and leave shaking on a roller shaker at room temperature for up to an hour to dissolve. Methods • 1. Add 20 μL 1× working stock of Substrate (MCM2) in TBS to all wells of a clear, 384 well, Nickel-chelate microplate to give a final concentration of 250 ng/well. Incubate at room temperature for at least 1 hour. Plates can be pre-coated for 1 hour and stored at 4° C. for up to 8 days. • 2. Wash with TBS+0.05% Tween 20 (80 μL x 3). • 3. Add 2 μL 10× test compounds, including the positive control, in 40% DMSO/water to ‘test’ wells. Add 2 μL 40% DMSO/water to ‘control’ and ‘blank’ wells. The final DMSO concentration will be 4%. • 4. Add 13 μL CDCl7/ASK Kinase (1.5× stock) in Kinase Reaction Buffer to ‘test’ and ‘control’ wells to give a final concentration of […]. Add 13 μL Kinase Reaction Buffer to ‘blank’ wells. • 5. Add 5 μL ATP (4× stock) in Kinase Reaction Buffer to all wells to give a final concentration of 2 μM. • 6. Incubate at room temperature for 90 minutes. • 7. Wash with TBS+0.05% Tween 20 (80 μL x 3). • 8. Add 20 μL 1× working solution of Primary Antibody in TBS to all wells. Incubate at room temperature for 30 minutes. • 9. Wash with TBS+0.05% Tween 20 (80 μL x 3). • 10. Add 20 μL 1× working solution of Secondary Antibody in TBS to all wells. Incubate at room temperature for 30 minutes. • 11. Wash with TBS+0.05% Tween 20 (80 μL x 3). • 12. Add 20 μL 1× Development Reagent to all wells. • 13. Incubate at room temperature for 2 hours. Stop the reaction by adding 20 μL Stop Solution to all wells and record Absorbance on a Pherastar plate reader.
Percentage inhibition values were calculated from absorbance values, using the no compound (DMSO) and no enzyme control values as 0% and 100% inhibition, respectively. IC50 determination was performed with ExcelFit software (IDBS) using curve fit 205. Z′ factors were determined for each plate tested and were all above 0.5.

Sequence of Cdc7 (O00311 whole entry): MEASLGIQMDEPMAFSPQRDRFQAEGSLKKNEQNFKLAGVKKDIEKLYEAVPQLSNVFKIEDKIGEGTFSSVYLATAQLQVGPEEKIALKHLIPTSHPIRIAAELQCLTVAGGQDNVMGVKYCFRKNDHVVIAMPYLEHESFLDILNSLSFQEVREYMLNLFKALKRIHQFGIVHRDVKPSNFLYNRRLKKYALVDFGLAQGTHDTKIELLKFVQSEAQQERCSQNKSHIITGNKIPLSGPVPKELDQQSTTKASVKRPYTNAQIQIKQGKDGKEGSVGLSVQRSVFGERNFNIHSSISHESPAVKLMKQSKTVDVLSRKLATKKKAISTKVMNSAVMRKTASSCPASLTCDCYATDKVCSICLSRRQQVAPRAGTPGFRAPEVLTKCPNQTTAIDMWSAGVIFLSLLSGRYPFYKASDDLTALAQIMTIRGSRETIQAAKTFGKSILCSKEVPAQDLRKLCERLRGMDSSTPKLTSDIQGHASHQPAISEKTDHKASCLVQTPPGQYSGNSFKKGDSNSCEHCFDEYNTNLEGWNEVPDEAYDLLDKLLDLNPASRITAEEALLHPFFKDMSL
Sequence of Cdc7 (Q9UBU7 whole entry partner): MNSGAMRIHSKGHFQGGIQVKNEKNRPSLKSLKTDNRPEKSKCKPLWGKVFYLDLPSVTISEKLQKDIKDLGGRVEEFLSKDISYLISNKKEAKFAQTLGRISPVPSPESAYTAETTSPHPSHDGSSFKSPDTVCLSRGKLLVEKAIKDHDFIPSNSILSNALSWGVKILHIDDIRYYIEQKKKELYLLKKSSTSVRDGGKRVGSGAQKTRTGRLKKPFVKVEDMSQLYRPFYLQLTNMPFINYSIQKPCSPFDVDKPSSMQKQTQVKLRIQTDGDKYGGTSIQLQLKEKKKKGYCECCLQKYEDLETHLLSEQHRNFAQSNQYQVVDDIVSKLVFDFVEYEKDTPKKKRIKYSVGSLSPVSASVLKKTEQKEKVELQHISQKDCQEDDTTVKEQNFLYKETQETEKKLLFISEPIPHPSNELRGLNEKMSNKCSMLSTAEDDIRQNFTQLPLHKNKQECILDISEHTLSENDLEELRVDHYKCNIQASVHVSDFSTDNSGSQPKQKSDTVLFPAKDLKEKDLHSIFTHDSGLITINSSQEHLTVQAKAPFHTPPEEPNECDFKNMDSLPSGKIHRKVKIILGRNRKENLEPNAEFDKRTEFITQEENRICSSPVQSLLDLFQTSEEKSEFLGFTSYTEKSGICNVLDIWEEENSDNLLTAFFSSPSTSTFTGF
Sequence of Cdc7/ASK (O00311 whole entry): as the sequence (O00311 whole entry) above
Sequence of Cdc7/ASK (Q9UBU7 whole entry partner): as the sequence (Q9UBU7 whole entry partner) above

| Compound | EC50 [1] [nM] | IC50 [2] [nM] |
| --- | --- | --- |
| Cc1ncsc1-c1nc(C2CCNCC2)c(Cl)c(=O)[nH]1 [Compound 2, 5-chloro-2-(4-methylthiazol-5-yl)-4-(4-piperidyl)-1H-pyrimidin-6-one] | 2000 | 3.16 |
| CCc1[nH]ncc1-c1nc(C2CCOCC2)c(Cl)c(=O)[nH]1 [Compound 15, 5-chloro-2-(5-ethyl-1H-pyrazol-4-yl)-4-tetrahydropyran-4-yl-1H-pyrimidin-6-one] | 1740 | 37.2 |
| Cc1cc(C(=O)N2CCC(c3nc(-c4scnc4C)[nH]c(=O)c3Cl)CC2)no1 [Compound 25, 5-chloro-4-[1-(5-methylisoxazole-3-carbonyl)-4-piperidyl]-2-(4-methylthiazol-5-yl)-1H-pyrimidin-6-one] | 447 | 4.79 |
| Cc1ncsc1-c1nc(C2CCN(C(=O)c3cc(C)n(C)n3)CC2)c(Cl)c(=O)[nH]1 [Compound 23, 5-chloro-4-[1-(1,5-dimethylpyrazole-3-carbonyl)-4-piperidyl]-2-(4-methylthiazol-5-yl)-1H-pyrimidin-6-one] | 3890 | 3.31 |
| Cc1ncsc1-c1nc(N2CCN[C@H](C)C2)c(Cl)c(=O)[nH]1 [Compound 32, 5-chloro-4-[(3R)-3-methylpiperazin-1-yl]-2-(4-methylthiazol-5-yl)-1H-pyrimidin-6-one] | 263 | 8.71 |
| Cc1ncsc1-c1nc(N2CCCC(F)(F)C2)c(Cl)c(=O)[nH]1 [Compound 35, 5-chloro-4-(3,3-difluoro-1-piperidyl)-2-(4-methylthiazol-5-yl)-1H-pyrimidin-6-one] | 24 | 1.41 |
| CCc1ncsc1-c1nc(C2CCOCC2)c(Cl)c(=O)[nH]1 [Compound 13, 5-chloro-2-(4-ethylthiazol-5-yl)-4-tetrahydropyran-4-yl-1H-pyrimidin-6-one] | 1100 | 33.1 |
| Cc1ncsc1-c1nc(N2CCN[C@@H](C)C2)c(Cl)c(=O)[nH]1 [Compound 37, 5-chloro-4-[(3S)-3-methylpiperazin-1-yl]-2-(4-methylthiazol-5-yl)-1H-pyrimidin-6-one] | 110 | 3.31 |
| Cc1ncsc1-c1nc(N2CCNC(C(F)(F)F)C2)c(Cl)c(=O)[nH]1 (centres unmarked) [Compound 31, 5-chloro-2-(4-methylthiazol-5-yl)-4-[3-(trifluoromethyl)piperazin-1-yl]-1H-pyrimidin-6-one] | 85.1 | 3.63 |
| Cc1ncsc1-c1nc(N2CCC(C)CC2)c(Cl)c(=O)[nH]1 [Compound 30, 5-chloro-4-(4-methyl-1-piperidyl)-2-(4-methylthiazol-5-yl)-1H-pyrimidin-6-one] | 251 | 3.47 |
| Cc1ncsc1-c1nc(N2CCC(O)CC2)c(Cl)c(=O)[nH]1 [Compound 29, 5-chloro-4-(4-hydroxy-1-piperidyl)-2-(4-methylthiazol-5-yl)-1H-pyrimidin-6-one] | 158 | 3.16 |
| Cc1ncsc1-c1nc(N2CCCC(CO)C2)c(Cl)c(=O)[nH]1 (centres unmarked) [Compound 36, 5-chloro-4-[3-(hydroxymethyl)-1-piperidyl]-2-(4-methylthiazol-5-yl)-1H-pyrimidin-6-one] | 158 | 5.89 |
| Cc1ncsc1-c1nc(C2CCOCC2)c(F)c(=O)[nH]1 [Compound 8, 5-fluoro-2-(4-methylthiazol-5-yl)-4-tetrahydropyran-4-yl-1H-pyrimidin-6-one] | 331 | 30.2 |
| Cc1ncsc1-c1nc(N2CCC(CO)CC2)c(Cl)c(=O)[nH]1 [Compound 33, 5-chloro-4-[4-(hydroxymethyl)-1-piperidyl]-2-(4-methylthiazol-5-yl)-1H-pyrimidin-6-one] | 100 | 2.69 |
| Cc1ncoc1-c1nc(C2CCOCC2)c(Cl)c(=O)[nH]1 [Compound 12, 5-chloro-2-(4-methyloxazol-5-yl)-4-tetrahydropyran-4-yl-1H-pyrimidin-6-one] | 3630 | 363 |
| Cc1ncsc1-c1nc(N2CCNCC2)c(Cl)c(=O)[nH]1 [Compound 38, 5-chloro-2-(4-methylthiazol-5-yl)-4-piperazin-1-yl-1H-pyrimidin-6-one] | 83.2 | 2.29 |
